Some test systems named below: MALME-3M melanoma; SF-295 CNS; SK-MEL-2 melanoma; DU-145 prostate; HT29 colon; MCF7 breast; MDA-MB-231 breast; OVCAR-5 ovarian.
Assay in all cases: DTP human tumour cell line panel, 48 h

Values joined by “and” are separate entries in the source; they are usually repeats but may differ in a detail not shown here. Equal values may be shown once.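 In this assay, cells in 96-well plates receive the compound at five concentrations for 48 hours. Endpoints are linearly interpolated between the surrounding concentrations. At the GI50, growth is halved. TGI: total growth inhibition.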

GI50 and TGI data for twelve compounds are collected here from PubChem BioAssay (NCI).

As to `Cc1ccc(S(=O)(=O)NC(CCC(=O)Nc2ccccc2)C(=O)Nc2ccccc2)cc1` (stereo not drawn), the results for the GI50 in the assay on MALME-3M melanoma, in the assay with SF-295 CNS and with SK-MEL-2 melanoma were 0.745 µM, 0.362 µM and 0.427 µM, respectively. Besides, the TGI (in general, the concentration giving total growth inhibition) in the assay with MALME-3M melanoma was found to be 2.51 µM; in the assay with SF-295 CNS, 1.69 µM; with SK-MEL-2 melanoma, 1.47 µM.
With `COc1cc(OC)c(OC)cc1/C=C1\C=Cc2ccccc21`, the TGI is over 100 µM in the assay on DU-145 prostate; over 100 µM with HT29 colon; 56.8 µM in the assay with MALME-3M melanoma; over 100 µM with MCF7 breast; 50.9 µM with MDA-MB-231 breast; over 100 µM in the assay with OVCAR-5 ovarian. In the assay with SF-295 CNS, this compound came in with a TGI of 57.6 µM.
In the case of `COc1cc(-c2nc(SCC(=O)Nc3ccc(C(C)=O)cc3)[nH]c(=O)c2C#N)cc(OC)c1OC`, the GI50 (in general, the concentration that inhibits growth by half) with DU-145 prostate was 62.6 µM; in the assay with HT29 colon, 55.7 µM; in the assay on MALME-3M melanoma it was 48.1 µM; in the assay on MCF7 breast, 40 µM; with MDA-MB-231 breast it was 38.7 µM; in the assay on OVCAR-5 ovarian, 85.1 µM. The GI50 in the assay on SF-295 CNS is 43 µM. Moreover, the TGI in the assay on DU-145 prostate, with HT29 colon, in the assay on MALME-3M melanoma, in the assay with MCF7 breast, in the assay with MDA-MB-231 breast and with OVCAR-5 ovarian was over 100 µM throughout. In the assay with SF-295 CNS, this compound showed a TGI of over 100 µM.
As for `CC(C)=CCC/C(C)=C/CC/C(=C/COP(=O)(OCc1ccc([N+](=O)[O-])o1)N(C)CCCCCl)CC=C(C)C` (stereo not drawn), the GI50 in the assay with DU-145 prostate is 1.94 µM; in the assay on HT29 colon, 4.56 µM; in the assay on MCF7 breast, 1.88 µM; in the assay with MDA-MB-231 breast, 8.58 µM; in the assay on OVCAR-5 ovarian, 10.6 µM; in the assay on SF-295 CNS, 7.14 µM. Further, the GI50 with SK-MEL-2 melanoma was 3.09 µM. Moreover, the TGI amounted to 18.6 µM in the assay with DU-145 prostate; 33.6 µM in the assay with HT29 colon; 5.91 µM in the assay on MCF7 breast; 22.8 µM in the assay with MDA-MB-231 breast; 24.3 µM in the assay on OVCAR-5 ovarian; 26 µM in the assay with SF-295 CNS. In the assay with SK-MEL-2 melanoma, this compound returned a TGI of 14.1 µM.
In the case of `O=C(Nc1cccc(C(F)(F)F)c1)c1cccc(NC2=C(Cl)C(=O)N(Cc3ccccc3)C2=O)c1`, the GI50 in the assay on DU-145 prostate was 37.2 µM; in the assay on HT29 colon, 40.1 µM; in the assay with MCF7 breast, 3.28 µM; in the assay with MDA-MB-231 breast it was 5.38 µM; in the assay with OVCAR-5 ovarian, over 100 µM; with SF-295 CNS, 20.2 µM. The GI50 in the assay with SK-MEL-2 melanoma was 14.6 µM. Besides, the TGI with DU-145 prostate, with HT29 colon, in the assay on MCF7 breast, in the assay with MDA-MB-231 breast, with OVCAR-5 ovarian and in the assay on SF-295 CNS was over 100 µM each time. In the assay on SK-MEL-2 melanoma, this compound showed a TGI of 40.1 µM.
For the compound `Oc1ccc(/C=N/Nc2nc3ccccc3s2)c(O)c1`, the GI50 is 1.86 µM in the assay with DU-145 prostate; 3.61 µM in the assay on HT29 colon; 1.43 µM with MALME-3M melanoma; 1.65 µM in the assay with MCF7 breast; 1.69 µM in the assay with MDA-MB-231 breast; 2.59 µM with OVCAR-5 ovarian. Besides, the GI50 in the assay on SF-295 CNS was 2.86 µM. Further, the TGI came out at 17.6 µM with DU-145 prostate; 13.6 µM with HT29 colon; 7.26 µM with MALME-3M melanoma; 9.39 µM with MCF7 breast; 12.9 µM with MDA-MB-231 breast; 21 µM in the assay on OVCAR-5 ovarian. This compound displayed a TGI in the assay on SF-295 CNS of 35.4 µM.
Take `CN(C)CCOc1nc2c3cccnc3cc(-c3cccc(Cl)c3)c2c2ncccc12`: the GI50 with DU-145 prostate is 1.84 µM; with HT29 colon, 1.01 µM; in the assay on MCF7 breast it was 1.28 µM; in the assay on MDA-MB-231 breast it was 1.5 µM; in the assay with OVCAR-5 ovarian, 1.5 µM; with SF-295 CNS, 1.13 µM. Moreover, the GI50 in the assay on SK-MEL-2 melanoma is 1.9 µM. Also, the TGI in the assay with DU-145 prostate stood at 4.26 µM; with HT29 colon, 2.27 µM; in the assay with MCF7 breast, 2.68 µM; in the assay on MDA-MB-231 breast, 3.53 µM; in the assay on OVCAR-5 ovarian it was 4.02 µM; with SF-295 CNS, 2.5 µM. Also, the TGI with SK-MEL-2 melanoma came out at 3.79 µM.
Turning to `O=C(N=Nc1c(O)[nH]c2c(Cl)cc(Cl)cc12)c1ccncc1`, the TGI was 75.7 µM in the assay on HT29 colon; 32.7 µM in the assay with MALME-3M melanoma; over 100 µM with MCF7 breast; 39.4 µM with MDA-MB-231 breast; over 100 µM in the assay on OVCAR-5 ovarian; over 100 µM in the assay on SF-295 CNS. Moreover, the TGI in the assay on SK-MEL-2 melanoma is 40.2 µM.
As to `CC(C)c1cc(CNc2nc(Nc3cc(C4CC4)[nH]n3)cc(N3CCN(C)CC3)n2)on1`, the GI50 in the assay with DU-145 prostate is 1.57 µM and 0.205 µM; in the assay on MALME-3M melanoma it was 1.61 µM and 0.276 µM; in the assay on MDA-MB-231 breast, 1.29 µM and 0.151 µM; with SK-MEL-2 melanoma it was 1.69 µM and 0.646 µM. In addition, the TGI in the assay with MALME-3M melanoma is > 10 µM and 2.96 µM; with MCF7 breast, > 10 µM and 13.1 µM; in the assay with MDA-MB-231 breast, > 10 µM and 5.42 µM; with OVCAR-5 ovarian it was > 10 µM and 3.91 µM; in the assay on SF-295 CNS, > 10 µM and 2.77 µM; with SK-MEL-2 melanoma it was > 10 µM and 2.29 µM.
For `COc1ccc(NC(=O)Nc2ccc(Nc3nc(C)cc(Nc4ccc(C)cc4)n3)cc2)cc1`, the GI50 with DU-145 prostate is 1.16 µM; in the assay with MALME-3M melanoma, 1.83 µM; with MDA-MB-231 breast it was 0.894 µM; in the assay with OVCAR-5 ovarian, 1.72 µM; in the assay on SF-295 CNS, 1.71 µM; in the assay on SK-MEL-2 melanoma, 1.85 µM. Moreover, the TGI in the assay with DU-145 prostate worked out at 2.59 µM; in the assay on MALME-3M melanoma, 3.58 µM; in the assay on MDA-MB-231 breast, 2.46 µM; in the assay on OVCAR-5 ovarian, 3.22 µM; in the assay on SF-295 CNS, 3.18 µM; with SK-MEL-2 melanoma it was 3.57 µM.
In the case of `CCOC(=O)c1cc2cc(NC(=O)c3cc4cc([N+](=O)[O-])ccc4n3C)ccc2n1C`, the GI50 in the assay with HT29 colon was 24.9 µM; in the assay on MCF7 breast it was 44.2 µM; in the assay on MDA-MB-231 breast it was 2.69 µM; with OVCAR-5 ovarian, 21.7 µM; in the assay on SF-295 CNS it was 30.1 µM; with SK-MEL-2 melanoma, over 100 µM. The TGI in the assay with HT29 colon was over 100 µM; in the assay with MCF7 breast, over 100 µM; with MDA-MB-231 breast, 16.3 µM; with OVCAR-5 ovarian it was 61.9 µM; with SF-295 CNS, over 100 µM; in the assay with SK-MEL-2 melanoma, over 100 µM.
On to `COc1cc2nc(-c3ccc(-n4cncc4-c4ccc(N)cc4)cc3)sc2c(OC)c1OC`, for which the GI50 was 7.25 µM in the assay with DU-145 prostate; 2.79 µM in the assay on HT29 colon; 0.71 µM in the assay on MALME-3M melanoma; 3.02 µM in the assay with MCF7 breast; 3.66 µM in the assay on MDA-MB-231 breast; 34.3 µM in the assay with OVCAR-5 ovarian. For the same compound, the GI50 in the assay with SF-295 CNS is 1.53 µM. In addition, the TGI in the assay on DU-145 prostate was over 100 µM; in the assay on HT29 colon it was over 100 µM; in the assay with MALME-3M melanoma it was 6.44 µM; in the assay with MCF7 breast it was over 100 µM; with MDA-MB-231 breast it was over 100 µM; with OVCAR-5 ovarian it was over 100 µM. This compound yielded a TGI with SF-295 CNS of 7.14 µM.
